Source: patent US11246882B2, “Pharmaceutical composition for inhibiting resistance against anticancer drugs of patient suffering from ovarian cancer comprising NAG-1 inhibitor as active ingredient” (PUSAN NATIONAL UNIVERSITY INDUSTRY-UNIVERSITY COOPERATION …, priority 2015, dated 2022)

Legend:
[1] = tested on: ovarian cancer stem cells (R182); assay: Cell viability by MTT assay: resistance of ovarian cancer stem cells against Taxol under NAG-1 regulation; format: cell-based, Human
Method: Human epithelial ovarian cancer stem cell line R182 cells were provided by Prof. Gil Mor (Yale University School of Medicine). A2780 cells were purchased from American Type Culture Collection (Manassas, Va.). Cells were maintained in RPMI 1640 medium (supplemented with 20% [v/v] heat-inactivated FBS, 50 U/ml penicillin, and […] streptomycin) in a 5% CO2 humidified incubator at 37° C. Cell numbers were counted by trypan blue (Sigma-Aldrich, St. Louis, Mo., USA) using a hemocytometer according to dye exclusion assay.
200 μl of the cultured cancer cells were seeded into a 96-well plate to have 5×10^3 cells/well, and cultured for 24 hours at a temperature of 37° C. in a wet incubator with carbon 5% and […] supplied thereto. Then, an empty vector (pSilencer 4.1-CMV-neo vector, Ambion, USA) and shRNA specific to NAG-1 were added to the ovarian cancer cells, cultured for 48 hours, and treated for 48 hours with an anticancer drug, Taxol, according to the concentrations. 50 μl of MTT solution (1 mg/ml) in PBS was added to each well, and cultured again for 6 hours. After the formation of formazan was confirmed, the MTT solution was completely removed. […] Afterwards, a micro plate reader (Molecular Devices, USA) was used to measure absorbance at 560 nm. Accordingly, the relative cell viability was calculated when cells that were not treated with an anticancer drug was considered as 100%. […]

ovarian cancer cells = assay: Treatment of ovarian cancer cells with the anticancer drug Taxol; format: cell-based; conditions: ovarian cancer cells other than stem cells

| Compound | resistance against the anticancer drug (Taxol), amount of living cells by MTT assay ([1]; R182 cells, shRNA added, cultured 48 hours, then Taxol 48 hours, compared with empty vector (FIG. 5)) | cell death of ovarian cancer stem cells on treatment with anticancer drug ([1]; ovarian cancer stem cells) | cell death of ovarian cancer cells on treatment with anticancer drug (ovarian cancer cells) |
| --- | --- | --- | --- |
| shRNA specific to NAG-1: shRNA having SEQ ID NO: 1 (ACAUGCACGCGCAGAUCAA), inhibitor of expression of NAG-1 protein; expression vector | the resistance against the anticancer drug was reduced |  |  |
| CC(=O)O[C@H]1C(=O)[C@@]2(C)[C@H]([C@H](OC(=O)c3ccccc3)[C@]3(O)C[C@H](OC(=O)[C@H](O)[C@@H](NC(=O)c4ccccc4)c4ccccc4)C(C)=C1C3(C)C)[C@]1(OC(C)=O)CO[C@@H]1C[C@@H]2O [Taxol] |  | ovarian cancer stem cells did not die | ovarian cancer cells die |
